Data on 17 molecules can be found in ChEMBL document CHEMBL4024718, “Design and synthesis of quinazolinones as EGFR inhibitors to overcome EGFR resistance obstacle” (Bioorg Med Chem, 2017).

Series [1] concerns A549. As to the kind of experiment: Antiproliferative activity against human A549 cells harboring wild type EGFR after 48 hrs by SRB assay. The format is cell-based. The note with it: A549, 48 h. A general note: Sulforhodamine B stains cellular protein and so reports cell mass.
Series [2] addresses Epidermal growth factor receptor (Homo sapiens, UniProt P00533). Nature of the series: Inhibition of human EGFR preincubated for 5 mins with substrate followed by ATP addition measured after 30 mins by HTRF method. The class given is ADME. A general note: In TR-FRET formats the signal depends on donor and acceptor labels being close together.
Series [3] concerns the target Epidermal growth factor receptor (Homo sapiens, UniProt P00533, T790M).
In series [4] the test system is HT-29. As to the kind of experiment: Antiproliferative activity against non-special gene type human HT-29 cells after 48 hrs by SRB assay. The settings on record: HT-29, 48 h. The format is cell-based.
Series [5] has as its system NCI-H1975. Nature of the series: cells. The format is functional, cell-based. The settings on record: Homo sapiens, NCI-H1975, 48 h.
In series [6] the target is Fibroblast growth factor receptor 1 (Homo sapiens) (UniProt P11362). Nature of the series: Inhibition of N-terminal GST-tagged recombinant human FGFR1 (456 to 765 residues) expressed in baculovirus infected Sf21 insect cells at 3 uM relative to control.
Series [7] has as its target Dual specificity mitogen-activated protein kinase kinase 1 (Homo sapiens) (UniProt Q02750). As to the kind of experiment: Inhibition of recombinant human N-terminal GST-fused MEK1 expressed in Escherichia coli at 3 uM relative to control.
In series [8] the target is Aurora kinase A (Homo sapiens) (UniProt O14965). Nature of the series: Inhibition of N-terminal His6-tagged recombinant full-length human Aurora A expressed in Sf21 insect cells at 3 uM relative to control.
Series [9] deals with Tyrosine-protein kinase JAK2 (Homo sapiens) (UniProt O60674). Nature of the series: Inhibition of C-terminal His6-tagged recombinant human JAK2 (808 to end residue) expressed in baculovirus infected Sf21 insect cells at 3 uM relative to control.
In series [10] the target is Tyrosine-protein kinase Blk (Homo sapiens) (UniProt P51451). As to the kind of experiment: Inhibition of human N-terminal His6 tagged recombinant full-length human Blk expressed in Sf21 insect cells at 3 uM relative to control.
The target of series [11] is Receptor-type tyrosine-protein kinase FLT3 (Homo sapiens) (UniProt P36888). As to the kind of experiment: Inhibition of N-terminal GST tagged recombinant human Flt3 (564 to end residues) at 3 uM relative to control.
Series [12] concerns the target Vascular endothelial growth factor receptor 1 (Homo sapiens) (UniProt P17948). Nature of the series: Inhibition of recombinant human VEGFR-1 expressed in Spodoptera frugiperda insect cells at 3 uM relative to control.
Series [13] has as its target Tyrosine-protein kinase SYK (Homo sapiens) (UniProt P43405). Nature of the series: Inhibition of recombinant full length N-terminal His6-tagged human SYK expressed in baculovirus infected Sf21 insect cells at 3 uM relative to control.
Series [14] has as its target Hepatocyte growth factor receptor (Homo sapiens) (UniProt P08581). Nature of the series: Inhibition of N-terminal His6-tagged recombinant human Met (974 to end residues) expressed in baculovirus infected Sf21 insect cells at 3 uM relative to control.
In series [15] the target is LKB1-STRAD-MO25 complex (Homo sapiens) (UniProt Q15831+Q7RTN6+Q9Y376). Nature of the series: Inhibition of recombinant full-length N-terminal 6-His-tagged human LKB1/GST-tagged MO25alpha/GST-tagged STRADalpha expressed in SF21 cells at 3 uM relative to control.
Series [16] addresses Mast/stem cell growth factor receptor Kit (Homo sapiens) (UniProt P10721). As to the kind of experiment: Inhibition of N-terminal GST tagged recombinant human c-Kit (544 to end residues) expressed in baculovirus infected Sf21 insect cells at 3 uM relative to control.
For series [17], the target named is Insulin-like growth factor 1 receptor (Homo sapiens) (UniProt P08069). Nature of the series: Inhibition of N-terminal 6His-tagged recombinant human IGF-1R (959 to end residues) expressed in baculovirus infected Sf21 insect cells at 3 uM relative to control.
Series [18] has as its target Vascular endothelial growth factor receptor 2 (Homo sapiens) (UniProt P35968). As to the kind of experiment: Inhibition of recombinant human VEGFR-2 at 3 uM relative to control.
Series [19] concerns the target Cyclin-dependent kinase 1/cyclin B1 (Homo sapiens) (UniProt P06493+P14635). Nature of the series: Inhibition of C-terminal His6-tagged human full length Cdk1/N-terminal GST-tagged human full length Cyclin B expressed in baculovirus infected Sf21 insect cells at 3 uM relative to control.
The target in series [20] is Insulin receptor (Homo sapiens) (UniProt P06213). As to the kind of experiment: Inhibition of N-terminal 6His-tagged recombinant human insulin receptor (1005 to 1310 residues) expressed in baculovirus infected Sf21 insect cells at 3 uM relative to control.
Series [21] has as its target 5'-AMP-activated protein kinase catalytic subunit alpha-1 (Homo sapiens) (UniProt Q13131). Nature of the series: Inhibition of full length recombinant human C-terminal His-tagged AMPKalpha1 expressed in Spodoptera frugiperda insect cells at 3 uM relative to control.
Series [22] addresses EGFR (epidermal growth factor receptor) kinase domain (Homo sapiens, UniProt P00533). Nature of the series: Inhibition of N-terminal GST-tagged human EGFR kinase domain (696 to end residues) expressed in baculovirus infected Sf21 insect cells at 3 uM relative to control.
Series [23] has as its target Focal adhesion kinase 1 (Homo sapiens) (UniProt Q05397). As to the kind of experiment: Inhibition of N-terminal 6His-tagged recombinant human FAK (411 to 686 residues) expressed in baculovirus infected Sf21 insect cells at 3 uM relative to control.
For series [24], the target named is Tyrosine-protein kinase ABL1 (Homo sapiens) (UniProt P00519). As to the kind of experiment: Inhibition of N-terminal His6-tagged recombinant human Abl (27 to end residues) expressed in baculovirus infected Sf21 insect cells at 3 uM relative to control.

Epidermal growth factor receptor (Homo sapiens, UniProt P00533, T790M), sequence (P00533 25-1210 T790M limits assumed): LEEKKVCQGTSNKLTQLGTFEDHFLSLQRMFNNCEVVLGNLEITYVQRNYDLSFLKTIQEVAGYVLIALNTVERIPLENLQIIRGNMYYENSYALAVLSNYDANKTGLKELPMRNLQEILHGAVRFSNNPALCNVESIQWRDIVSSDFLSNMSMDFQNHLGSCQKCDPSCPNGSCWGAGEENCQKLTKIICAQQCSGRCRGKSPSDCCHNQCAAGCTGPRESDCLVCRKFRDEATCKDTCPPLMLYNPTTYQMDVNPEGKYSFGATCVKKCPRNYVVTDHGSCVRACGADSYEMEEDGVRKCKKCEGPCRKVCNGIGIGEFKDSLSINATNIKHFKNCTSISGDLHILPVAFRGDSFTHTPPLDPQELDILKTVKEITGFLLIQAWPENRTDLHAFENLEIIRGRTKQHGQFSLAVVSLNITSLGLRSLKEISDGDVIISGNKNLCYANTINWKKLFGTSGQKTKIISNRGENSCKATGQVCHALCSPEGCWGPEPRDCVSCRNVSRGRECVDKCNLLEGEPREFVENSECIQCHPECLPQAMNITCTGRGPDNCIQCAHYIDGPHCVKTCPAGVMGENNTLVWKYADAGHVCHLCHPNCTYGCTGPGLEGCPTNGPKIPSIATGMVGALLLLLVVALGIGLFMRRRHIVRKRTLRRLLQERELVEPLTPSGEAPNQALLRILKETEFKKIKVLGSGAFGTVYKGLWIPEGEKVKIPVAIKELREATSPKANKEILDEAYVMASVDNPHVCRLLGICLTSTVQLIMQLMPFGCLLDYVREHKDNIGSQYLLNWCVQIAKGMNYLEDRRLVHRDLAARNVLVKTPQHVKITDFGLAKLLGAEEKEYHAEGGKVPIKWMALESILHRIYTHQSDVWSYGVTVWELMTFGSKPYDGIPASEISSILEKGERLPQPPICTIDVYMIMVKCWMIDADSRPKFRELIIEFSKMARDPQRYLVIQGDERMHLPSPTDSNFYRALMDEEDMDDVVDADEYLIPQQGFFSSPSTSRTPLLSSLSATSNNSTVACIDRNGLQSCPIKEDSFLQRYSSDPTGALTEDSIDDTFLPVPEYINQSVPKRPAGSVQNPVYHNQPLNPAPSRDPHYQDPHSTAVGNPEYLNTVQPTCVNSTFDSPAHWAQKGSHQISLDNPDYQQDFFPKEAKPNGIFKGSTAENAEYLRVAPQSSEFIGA
Epidermal growth factor receptor (Homo sapiens, UniProt P00533), sequence (P00533 whole entry): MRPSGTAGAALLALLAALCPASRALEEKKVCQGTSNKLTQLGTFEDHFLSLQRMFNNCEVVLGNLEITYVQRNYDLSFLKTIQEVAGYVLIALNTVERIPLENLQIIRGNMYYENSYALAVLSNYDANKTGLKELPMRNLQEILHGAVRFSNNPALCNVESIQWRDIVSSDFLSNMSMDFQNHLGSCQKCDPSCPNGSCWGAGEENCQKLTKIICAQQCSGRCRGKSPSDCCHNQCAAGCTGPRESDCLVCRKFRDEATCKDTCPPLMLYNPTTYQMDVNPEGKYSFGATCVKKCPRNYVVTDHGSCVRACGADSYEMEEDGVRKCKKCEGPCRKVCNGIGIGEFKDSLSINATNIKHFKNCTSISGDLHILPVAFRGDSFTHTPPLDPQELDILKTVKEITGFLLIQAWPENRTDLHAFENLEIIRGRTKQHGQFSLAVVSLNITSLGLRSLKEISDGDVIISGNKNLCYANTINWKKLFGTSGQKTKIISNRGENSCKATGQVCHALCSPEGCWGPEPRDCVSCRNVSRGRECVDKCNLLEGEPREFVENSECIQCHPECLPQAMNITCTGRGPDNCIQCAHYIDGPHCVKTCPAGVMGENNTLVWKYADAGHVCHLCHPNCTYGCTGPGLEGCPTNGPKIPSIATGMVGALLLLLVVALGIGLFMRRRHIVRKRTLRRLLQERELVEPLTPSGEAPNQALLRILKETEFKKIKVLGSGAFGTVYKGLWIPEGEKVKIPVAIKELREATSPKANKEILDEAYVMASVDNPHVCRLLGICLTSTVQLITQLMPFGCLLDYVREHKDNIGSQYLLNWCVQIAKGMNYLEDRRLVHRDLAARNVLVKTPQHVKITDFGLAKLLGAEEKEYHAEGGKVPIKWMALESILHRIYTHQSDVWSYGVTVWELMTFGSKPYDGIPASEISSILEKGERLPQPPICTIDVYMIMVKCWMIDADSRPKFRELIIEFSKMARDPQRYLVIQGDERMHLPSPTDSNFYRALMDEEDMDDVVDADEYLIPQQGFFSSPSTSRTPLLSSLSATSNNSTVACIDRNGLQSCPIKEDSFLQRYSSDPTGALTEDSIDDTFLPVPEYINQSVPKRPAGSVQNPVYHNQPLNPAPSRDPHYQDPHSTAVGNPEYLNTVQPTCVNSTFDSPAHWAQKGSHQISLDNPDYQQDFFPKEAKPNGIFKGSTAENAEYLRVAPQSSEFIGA
Vascular endothelial growth factor receptor 1 (Homo sapiens), sequence (P17948 whole entry): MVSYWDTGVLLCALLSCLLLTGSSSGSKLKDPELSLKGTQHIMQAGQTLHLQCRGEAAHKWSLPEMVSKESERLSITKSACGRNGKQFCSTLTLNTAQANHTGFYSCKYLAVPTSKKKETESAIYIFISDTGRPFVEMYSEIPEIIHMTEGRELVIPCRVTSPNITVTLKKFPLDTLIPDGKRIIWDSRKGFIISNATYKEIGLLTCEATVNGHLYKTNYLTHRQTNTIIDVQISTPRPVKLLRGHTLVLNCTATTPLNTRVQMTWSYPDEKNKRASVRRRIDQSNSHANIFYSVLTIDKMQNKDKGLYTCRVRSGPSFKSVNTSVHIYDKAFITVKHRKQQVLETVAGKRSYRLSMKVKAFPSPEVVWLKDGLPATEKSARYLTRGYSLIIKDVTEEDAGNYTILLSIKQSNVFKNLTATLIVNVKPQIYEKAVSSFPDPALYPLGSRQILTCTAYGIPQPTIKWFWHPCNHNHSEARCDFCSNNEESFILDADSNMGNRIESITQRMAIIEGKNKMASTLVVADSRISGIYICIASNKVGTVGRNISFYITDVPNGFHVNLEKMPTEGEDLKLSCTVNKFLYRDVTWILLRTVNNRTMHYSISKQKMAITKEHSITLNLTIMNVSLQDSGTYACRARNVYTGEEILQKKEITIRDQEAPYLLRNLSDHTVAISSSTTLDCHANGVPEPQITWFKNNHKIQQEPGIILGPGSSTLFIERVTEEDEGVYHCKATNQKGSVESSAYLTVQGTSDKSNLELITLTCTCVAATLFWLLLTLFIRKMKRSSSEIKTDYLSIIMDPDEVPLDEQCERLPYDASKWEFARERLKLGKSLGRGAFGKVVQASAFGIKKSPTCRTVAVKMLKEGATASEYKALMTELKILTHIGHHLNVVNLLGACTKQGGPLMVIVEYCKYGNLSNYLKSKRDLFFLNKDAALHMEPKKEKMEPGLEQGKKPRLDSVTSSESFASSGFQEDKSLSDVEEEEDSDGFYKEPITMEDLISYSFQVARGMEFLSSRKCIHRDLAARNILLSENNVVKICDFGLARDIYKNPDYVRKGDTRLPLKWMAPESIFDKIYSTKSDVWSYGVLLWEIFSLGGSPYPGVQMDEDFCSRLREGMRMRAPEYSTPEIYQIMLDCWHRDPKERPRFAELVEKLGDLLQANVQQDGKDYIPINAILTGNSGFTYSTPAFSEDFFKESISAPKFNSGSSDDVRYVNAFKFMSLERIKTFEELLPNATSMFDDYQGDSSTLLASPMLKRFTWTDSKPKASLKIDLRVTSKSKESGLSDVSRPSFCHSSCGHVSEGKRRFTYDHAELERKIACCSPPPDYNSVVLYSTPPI
Insulin-like growth factor 1 receptor (Homo sapiens), sequence (P08069 31-736 limits assumed): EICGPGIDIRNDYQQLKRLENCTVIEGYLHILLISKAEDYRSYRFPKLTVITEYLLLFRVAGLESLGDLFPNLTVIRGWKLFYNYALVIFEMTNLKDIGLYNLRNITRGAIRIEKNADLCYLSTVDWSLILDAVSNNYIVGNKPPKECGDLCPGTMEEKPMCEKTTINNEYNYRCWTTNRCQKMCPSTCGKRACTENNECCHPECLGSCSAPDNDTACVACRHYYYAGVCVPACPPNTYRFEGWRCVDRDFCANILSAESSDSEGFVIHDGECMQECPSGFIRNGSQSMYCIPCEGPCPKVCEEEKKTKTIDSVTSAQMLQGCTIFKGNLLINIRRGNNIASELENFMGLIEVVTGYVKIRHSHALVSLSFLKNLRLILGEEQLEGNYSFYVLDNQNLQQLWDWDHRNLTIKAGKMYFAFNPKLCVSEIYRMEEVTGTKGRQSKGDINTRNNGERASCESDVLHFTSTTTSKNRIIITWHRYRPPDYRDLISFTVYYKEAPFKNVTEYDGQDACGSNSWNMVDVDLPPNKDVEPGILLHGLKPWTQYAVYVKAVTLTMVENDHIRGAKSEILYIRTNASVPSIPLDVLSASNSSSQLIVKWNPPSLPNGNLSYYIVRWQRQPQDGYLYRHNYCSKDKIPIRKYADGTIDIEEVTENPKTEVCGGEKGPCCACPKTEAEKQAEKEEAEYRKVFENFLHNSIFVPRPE
Insulin-like growth factor 1 receptor (Homo sapiens), sequence (P08069 741-1367 limits assumed): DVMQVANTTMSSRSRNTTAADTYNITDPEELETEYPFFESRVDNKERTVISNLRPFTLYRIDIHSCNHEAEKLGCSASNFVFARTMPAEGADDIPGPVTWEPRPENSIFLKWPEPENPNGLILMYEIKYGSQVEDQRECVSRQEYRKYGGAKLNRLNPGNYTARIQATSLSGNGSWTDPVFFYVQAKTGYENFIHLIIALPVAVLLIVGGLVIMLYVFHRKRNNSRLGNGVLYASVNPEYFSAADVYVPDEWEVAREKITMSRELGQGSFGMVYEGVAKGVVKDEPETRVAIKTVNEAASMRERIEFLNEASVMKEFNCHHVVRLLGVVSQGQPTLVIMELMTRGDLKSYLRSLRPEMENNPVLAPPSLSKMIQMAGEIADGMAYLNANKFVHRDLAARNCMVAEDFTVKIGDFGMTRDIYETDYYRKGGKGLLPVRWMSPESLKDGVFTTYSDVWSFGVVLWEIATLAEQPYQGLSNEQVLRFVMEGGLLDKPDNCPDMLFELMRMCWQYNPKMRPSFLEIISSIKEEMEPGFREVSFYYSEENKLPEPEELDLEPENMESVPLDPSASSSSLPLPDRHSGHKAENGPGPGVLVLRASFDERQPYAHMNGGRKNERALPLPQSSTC

In general, IC50 refers to the concentration needed to halve the response being measured. The low end stands for greater potency, the high end for weaker potency. Consider `NCCn1c(-c2ccccc2)nc2cc(Cl)ccc2c1=O`, for which the concentration for half-maximal inhibition (IC50) in series [1] was 2450 nM; in series [2] it was 2110 nM; in series [3], 287 nM; in series [4], 428 nM; in [5], 378 nM.
Consider `O=c1c2ccccc2nc(-c2ccccc2)n1-c1nnc(-c2ccccc2Cl)s1`, for which the IC50 was 100000 nM in [1]; 78200 nM in series [2]; 7230 nM in series [3]; 32500 nM in [4]; 5230 nM in series [5].
With `O=c1c2ccc(Cl)cc2nc(-c2ccccc2)n1-c1cccc(Cl)c1`, the IC50 in series [1] was 5300 nM; in [4] it was 4500 nM; in series [5] it was 2450 nM.
With `O=C(Nc1cc(Cl)ccc1C(=O)Nc1ccc(F)cc1)c1ccccc1`, the IC50 was 17400 nM in [1], 3360 nM in series [4] and 14400 nM in series [5].
On the same counts, the results for `O=c1c2ccccc2nc(-c2ccccc2)n1-c1nnc(C2CC2)s1` are 3020 nM, 3460 nM and 2380 nM.
On the same counts, the results for `O=c1c2ccc(Cl)cc2nc(-c2ccccc2)n1-c1cccnc1` are 3330 nM, 3800 nM and 2450 nM.
With `O=c1c2ccc(Cl)cc2nc(-c2ccccc2)n1-c1nnc(C2CC2)s1`, the IC50 in [1] was found to be 717 nM; in series [2], 530 nM; in [3] it was 102 nM; in [4] it was 732 nM; in series [5], 129 nM.
Broadly, the inhibition is the change of the read-out against control, counted positive when it falls. As to `COc1ccc(-c2nnc(-n3c(-c4ccccc4)nc4cc(Cl)ccc4c3=O)s2)cc1`, the IC50 worked out at 390 nM in series [1]; 320 nM in [2]; 21 nM in series [3]; 388 nM in series [4]; 31 nM in [5]. Further, the inhibition in [6], in series [7], in [8], in series [9], in series [10] and in series [11] was 0% in each case. Besides, the inhibition in series [12] is 0 to 34%; in series [13], 0%; in series [14], 0%; in [15] it was 0%; in series [16], 0%; in series [17], 10%. In addition, the inhibition in [18] was found to be 42%; in series [19] it was 0%; in series [20], 0%; in [21], 0%; in [23], 0%; in series [24], 0%. This molecule also came in with an inhibition at 3 µM in series [22] of 78%.
Regarding `CC(=O)c1ccccc1-n1c(-c2ccccc2)nc2cc(Cl)ccc2c1=O`, the IC50 in series [1] was found to be 50000 nM; in series [2], 34300 nM; in series [3], 720 nM; in series [4], 50000 nM; in [5], 846 nM.
Regarding `O=C(Nc1cc(Cl)ccc1C(=O)NCc1ccccc1)c1ccccc1`, the results for the IC50 in series [1], in [4] and in [5] were 1570 nM, 4800 nM and 1670 nM, respectively.
Take `O=C(Nn1c(-c2ccccc2)nc2ccccc2c1=O)c1ccc(Br)cc1`: the half-inhibitory concentration (IC50) in [1] came to 523 nM; in series [2], 420 nM; in series [3], 780 nM; in series [4], 1150 nM; in series [5] it was 810 nM.
For `O=c1c2ccccc2nc(-c2ccccc2)n1-c1ccc(F)c(Cl)c1`, the IC50 in [1] was 5420 nM; in [4], 6120 nM; in series [5] it was 4890 nM.
As to `Cc1nnc(-n2c(-c3ccccc3)nc3cc(Cl)ccc3c2=O)s1`, the IC50 in [1] came to 3790 nM; in series [4], 21200 nM; in [5] it was 760 nM.
Molecule `C=CC(=O)Nc1cccc(Oc2nc(Nc3ccc(N4CCN(C)CC4)cc3OC)ncc2Cl)c1` returned an IC50 in series [1] of 1870 nM.
Consider `Nc1ccccc1-n1c(-c2ccccc2)nc2cc(Cl)ccc2c1=O`, for which the IC50 in series [1] was determined as 18300 nM; in series [4], 50000 nM; in series [5], 4870 nM.
Take `COc1ccc(-n2c(-c3ccccc3)nc3cc(Cl)ccc3c2=O)cc1`: the IC50 in [1] was 2870 nM; in series [4], 3920 nM; in [5] it was 2880 nM.
Turning to `O=c1c2ccc(Cl)cc2nc(-c2ccccc2)n1-c1nnc(-c2ccccc2)s1`, the IC50 in series [1] is 2090 nM; in [2] it was 1680 nM; in [3] it was 1120 nM; in series [4], 2720 nM; in series [5], 213 nM.
